Reference: patent US20250236613A1, “SARM1 MODULATORS, PREPARATIONS, AND USES THEREOF” (SIRONAX LTD., priority 2021, published 2025)

Biological target: SARM1 (50-724) (Homo sapiens (Human), UniProt Q6SZW1)
Assay: SARM1 (50-724) enzymatic assay
Type: biochemical
Settings: SARM1 inhibitory activity; 2 nM SARM1 (50-724), 200 μM NMN activator, 100 μM NAD+ substrate, 1 h, LC-MS/MS
Method: The enzymatic assay was performed in a 384-well plate using Dulbecco's PBS buffer as the reaction buffer. Purified SARM1 (50-724) with a final concentration of 2 nM was pre-incubated with the test compound at 1% DMSO final assay concentration for 15 min at room temperature. The reaction was initiated by adding the mixture of 200 μM NMN as activator and 100 μM NAD^+ as substrate. After 1 h of incubation at room temperature, the reaction was terminated with 10 times volume of 70% acetonitrile, then centrifuged at 3800 rpm for 10 min. The samples were analyzed using LC-MS/MS after diluted to the proper concentration by 10 mM ammonium acetate (pH 9.75).

SARM1 (50-724), sequence (Q6SZW1 50-724): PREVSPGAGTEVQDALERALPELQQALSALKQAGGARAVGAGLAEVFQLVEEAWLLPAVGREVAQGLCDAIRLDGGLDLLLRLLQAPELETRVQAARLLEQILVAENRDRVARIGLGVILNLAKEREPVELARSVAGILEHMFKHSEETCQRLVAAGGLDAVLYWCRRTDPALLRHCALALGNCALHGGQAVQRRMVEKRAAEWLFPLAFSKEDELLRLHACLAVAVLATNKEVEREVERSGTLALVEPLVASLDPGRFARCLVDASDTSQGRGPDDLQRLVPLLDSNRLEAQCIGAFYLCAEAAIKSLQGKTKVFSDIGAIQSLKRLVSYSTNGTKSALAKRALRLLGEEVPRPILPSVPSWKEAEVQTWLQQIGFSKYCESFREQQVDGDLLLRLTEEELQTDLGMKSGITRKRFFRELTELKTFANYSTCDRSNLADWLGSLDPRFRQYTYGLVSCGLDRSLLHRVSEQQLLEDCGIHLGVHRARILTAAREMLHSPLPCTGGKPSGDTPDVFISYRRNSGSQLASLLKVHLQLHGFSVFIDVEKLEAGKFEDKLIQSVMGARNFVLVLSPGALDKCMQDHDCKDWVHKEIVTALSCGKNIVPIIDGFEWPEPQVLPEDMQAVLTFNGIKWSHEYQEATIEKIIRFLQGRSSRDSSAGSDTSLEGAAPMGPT

Row | Structure (SMILES) | IC50 [µM]
1 | O=c1cc(-c2cccnc2)cc[nH]1 [Compound 1, [3,4′-bipyridin]-2′(1′H)-one] | 5 to 15
2 | Cc1ccncc1-c1cc[nH]c(=O)c1 [Compound 2, 4-methyl-[3,4′-bipyridin]-2′(1′H)-one] | < 5
3 | COc1ccncc1-c1cc[nH]c(=O)c1 [Compound 3, 4-methoxy-[3,4′-bipyridin]-2′(1′H)-one] | < 5
4 | Cc1ccncc1-c1cccc(O)c1 [Compound 4, 3-(4-methylpyridin-3-yl)phenol] | < 5
5 | Cc1ccncc1-c1cc(O)cc(C#N)c1 [Compound 5, 3-hydroxy-5-(4-methylpyridin-3-yl)benzonitrile] | < 5
6 | Cc1ccncc1-c1ccc(O)c(C#N)c1 [Compound 6, 2-hydroxy-5-(4-methylpyridin-3-yl)benzonitrile] | < 5
7 | Cc1ccncc1-c1cccc(S(N)(=O)=O)c1 [Compound 7, 3-(4-methylpyridin-3-yl)benzenesulfonamide] | < 5
8 | Cc1ccncc1-c1ccc(CN)cc1 [Compound 8, (4-(4-methylpyridin-3-yl)phenyl)methanamine] | < 5
9 | Cc1ccncc1-c1ccc(O)cc1 [Compound 9, 4-(4-methylpyridin-3-yl)phenol] | < 5
10 | Oc1cccc(-c2cccnc2)c1 [Compound 10, 3-(pyridin-3-yl)phenol] | 15 to 30
11 | Cc1ccncc1-c1ccc(O)c(F)c1 [Compound 11, 2-fluoro-4-(4-methylpyridin-3-yl)phenol] | > 30
12 | Cc1ccncc1-c1ccc(O)cc1F [Compound 12, 3-fluoro-4-(4-methylpyridin-3-yl)phenol] | > 30
13 | Cc1ccncc1-c1cccc(O)c1F [Compound 13, 2-fluoro-3-(4-methylpyridin-3-yl)phenol] | < 5
14 | Cc1ccncc1-c1cc(O)ccc1F [Compound 14, 4-fluoro-3-(4-methylpyridin-3-yl)phenol] | > 30
15 | Cc1ccncc1-c1ccc(O)c(Br)c1 [Compound 15, 2-bromo-4-(4-methylpyridin-3-yl)phenol] | < 5
16 | Cc1ccncc1-c1cc(O)cc(Br)c1 [Compound 16, 3-bromo-5-(4-methylpyridin-3-yl)phenol] | < 5
17 | Cc1ccncc1-c1ccc(Br)c(O)c1 [Compound 17, 2-bromo-5-(4-methylpyridin-3-yl)phenol] | < 5
18 | Cc1ccncc1-c1ccc2c(c1)C(=O)NCC2 [Compound 18, 7-(4-methylpyridin-3-yl)-3,4-dihydroisoquinolin-1(2H)-one] | 15 to 30
19 | Cc1ccncc1-c1ccc(F)c(O)c1 [Compound 19, 2-fluoro-5-(4-methylpyridin-3-yl)phenol] | 5 to 15
20 | Cc1ccncc1-c1cc(O)cc(F)c1 [Compound 20, 3-fluoro-5-(4-methylpyridin-3-yl)phenol] | < 5
21 | Cc1ccncc1-c1ccc2[nH]ccc2c1 [Compound 21, 5-(4-methylpyridin-3-yl)-1H-indole] | < 5

Row | Structure (SMILES) | IC50 [µM]
22 | Cc1ccncc1-c1ccc2cc[nH]c2c1 [Compound 23, 6-(4-methylpyridin-3-yl)-1H-indole] | 15 to 30
23 | Cc1ccncc1-c1ccc2[nH]ncc2c1 [Compound 24, 5-(4-methylpyridin-3-yl)-1H-indazole] | < 5
24 | Cc1ccncc1-c1ccc2[nH]cnc2c1 [Compound 25, 5-(4-methylpyridin-3-yl)-1H-benzo[d]imidazole] | < 5
25 | Cc1ccncc1-c1cccc(O)c1C [Compound 26, 2-methyl-3-(4-methylpyridin-3-yl)phenol] | > 30
26 | Cc1ccncc1-c1cccc(O)c1Cl [Compound 27, 2-chloro-3-(4methylpyridin-3-yl)phenol] | > 30
27 | Cc1cc(-c2cnccc2C)ccc1O [Compound 28, 2-methyl-4-(4-methylpyridin-3-yl)phenol] | < 5
28 | CCc1cc(-c2cnccc2C)ccc1O [Compound 29, 2-ethyl-4-(4-methylpyridin-3-yl)phenol] | < 5
29 | COc1cc(-c2cnccc2C)ccc1O [Compound 30, 2-methoxy-4-(4-methylpyridin-3-yl)phenol] | > 30
30 | Cc1ccncc1-c1ccc(O)c(Cl)c1 [Compound 31, 2-chloro-4-(4-methylpyridin-3-yl)phenol] | < 5
31 | Cc1ccc(-c2cnccc2C)cc1O [Compound 32, 2-methyl-5-(4-methylpyridin-3-yl)phenol] | < 5
32 | Cc1ccncc1-c1ccc2c(c1)CCN2 [Compound 33, 5-(4-methylpyridin-3-yl)indoline] | 15 to 30
33 | Cc1ccncc1-c1cc2cc[nH]c2cc1F [Compound 34, 6-fluoro-5-(4-methylpyridin-3-yl)-1H-indole] | > 30
34 | Cc1ccncc1-c1ccc(F)c(O)c1F [Compound 35, 2,6-difluoro-3-(4-methylpyridin-3-yl)phenol] | > 30
35 | Cc1ccncc1-c1ccc2[nH]nnc2c1 [Compound 36, 5-(4-methylpyridin-3-yl)-1H-benzol[d][1,2,3]triazole] | < 5
36 | Cc1ccncc1-c1ccc2c(c1F)NC(=O)C2=O [Compound 37, 7-fluoro-6-(4-methylpyridin-3-yl)indoline-2,3-dione] | 5 to 15
37 | CC(=O)c1ccc(-c2cnccc2C)cc1O [Compound 38, 1-(2-hydroxy-4-(4-methylpyridin-3-yl)phenyl)ethan-1-one] | 5 to 15
38 | Cc1ccncc1-c1ccc(O)c(O)c1F [Compound 39, 3-fluoro-4-(4-methylpyridin-3-yl)benzene-1,2-diol] | 15 to 30
39 | Cc1ccncc1-c1ccc2[nH]c(=O)oc2c1 [Compound 40, 6-(4-methylpyridin-3-yl)benzo[d]oxazol-2(3H)-one] | < 5
40 | Cc1ccncc1-c1ccc2c(c1)CC(=O)N2 [Compound 41, 5-(4-methylpyridin-3-yl)indolin-2-one] | < 5
41 | Cc1ccncc1-c1ccc(N)c(O)c1 [Compound 42, 2-amino-5-(4-methylpyridin-3-yl)phenol] | < 5
42 | Cc1ccncc1-c1ccc(O)c(N)c1 [Compound 43, 2-amino-4-(4-methylpyridin-3-yl)phenol] | 5 to 15

Row | Structure (SMILES) | IC50 [µM]
43 | Cc1ccncc1-c1ccc2[nH]c(=O)[nH]c2c1 [Compound 44, 5-(4-methylpyridin-3-yl)-1,3-dihydro-2H-benzo[d]imidazol-2-one] | < 5
44 | Cc1ccncc1-c1ccc2c(c1)OCC(=O)N2 [Compound 45, 7-(4-methylpyridin-3-yl)-2H-benzo[b][1,4]oxazin-3(4H)-one] | 5 to 15
45 | Cc1ccncc1-c1ccc2c(c1)CNC(=O)N2 [Compound 46, 6-(4-methylpyridin-3-yl)-3,4-dihydroquinazolin-2(1H)-one] | > 30
46 | Cc1ccncc1-c1ccc(O)c(O)c1 [Compound 47, 4-(4-methylpyridin-3-yl)benzene-1,2-diol] | < 5
47 | Cc1ccncc1-c1cnc2[nH]ncc2c1 [Compound 48, 5-(4-methylpyridin-3-yl)-1H-pyrazolo[3,4-b]pyridine] | 15 to 30
48 | Cc1ccncc1-c1cc2cn[nH]c2cn1 [Compound 49, 5-(4-methylpyridin-3-yl)-1H-pyrazolo[3,4-c]pyridine] | > 30
49 | Cc1ccncc1-c1ccc2[nH]ncc2n1 [Compound 50, 5-(4-methylpyridin-3-yl)-1H-pyrazolo[4,3-b]pyridine] | 5 to 15
50 | Cc1ccncc1-c1ccc2c(c1)NC(=O)CO2 [Compound 51, 6-(4-methylpyridin-3-yl)-2H-benzo[b][1,4]oxazin-3(4H)-one] | < 5
51 | Cc1ccncc1-c1ccc2oc(=O)[nH]c2c1 [Compound 52, 5-(4-methylpyridin-3-yl)benzo[d]oxazol-2(3H)-one] | 5 to 15
52 | Cc1ccncc1-c1ccc2c(c1)OCCN2 [Compound 53, 7-(4-methylpyridin-3-yl)-3,4-dihydro-2H-benzo[b][1,4]oxazine] | > 30
53 | Cc1ccncc1-c1ccc2c(c1)NCCO2 [Compound 54, 6-(4-methylpyridin-3-yl)-3,4-dihydro-2H-benzo[b][1,4]oxazine] | 15 to 30
54 | Cc1ccncc1-c1ccc2c(c1)NC(=O)C2 [Compound 55, 6-(4-methylpyridin-3-yl)indolin-2-one] | 15 to 30
55 | Cc1ccncc1-c1cncc(O)c1 [Compound 56, 4′-methyl-[3,3′-bipyridin]-5-ol] | 5 to 15
56 | Cc1ccncc1-c1ccc2[nH]c(=O)n(C)c2c1 [Compound 57, 1-methyl-6-(4-methylpyridin-3-yl)-1,3-dihydro-2H-benzo[d]imidazol-2-one] | 5 to 15
57 | Cc1ccncc1-c1cc(Cl)c2[nH]ncc2c1 [Compound 58, 7-chloro-5-(4-methylpyridin-3-yl)-1H-indazole] | 5 to 15
58 | Cc1ccncc1-c1ccc2c(c1)COC(=O)N2 [Compound 59, 6-(4-methylpyridin-3-yl)-1,4-dihydro-2H-benzo[d][1,3]oxazin-2-one] | < 5
59 | Cc1ccncc1-c1cc(O)cc(Cl)c1 [Compound 60, 3-chloro-5-(4-methylpyridin-3-yl)phenol] | < 5
60 | Cc1ccncc1-c1cc(F)c(O)c(Cl)c1 [Compound 61, 2-chloro-6-fluoro-4-(4-methylpyridin-3-yl)phenol] | 5 to 15
61 | Cc1ccncc1-c1cccc(C(F)F)c1 [Compound 62, 3-(3-(difluoromethyl)phenyl)-4-methylpyridine] | < 5
62 | Cc1ccncc1-c1cc(O)cc(C(F)(F)F)c1 [Compound 63, 3-(4-methylpyridin-3-yl)-5-(trifluoromethyl)phenol] | < 5
63 | Cc1ccncc1-c1ccc2[nH]c(N)nc2c1 [Compound 64, 5-(4-methylpyridin-3-yl)-1H-benzo[d]imidazol-2-amine] | < 5
